# Measurements from ChEMBL document CHEMBL4219072, “Enhancing the anti-biofilm activity of 5-aryl-2-aminoimidazoles through nature inspired dimerisation” (Bioorg Med Chem, 2018).
# Legend:
# [1] = test system: Escherichia coli; assay: Antibiofilm activity against Escherichia coli TG1 after 24 hrs by crystal violet staining based assay; assay type: functional, organism-based; conditions: TG1, 24 h
# [2] = test system: Staphylococcus aureus; assay: Antibiofilm activity against Staphylococcus aureus SH1000 after 48 hrs by crystal violet staining based assay; assay type: functional, organism-based; conditions: SH1000, 48 h
# [3] = test system: Salmonella typhimurium; assay: Inhibition of planktonic growth of Salmonella typhimurium ATCC 14028 after 24 hrs; assay type: organism-based, Salmonella enterica subsp. enterica serovar Typhimurium; conditions: Salmonella enterica, ATCC 14028, 24 h
# [4] = test system: Staphylococcus aureus; assay: Inhibition of planktonic growth of Staphylococcus aureus SH1000 after 48 hrs; assay type: organism-based; conditions: SH1000, 48 h
# [5] = test system: Escherichia coli; assay: Inhibition of planktonic growth of Escherichia coli TG1 after 24 hrs; assay type: organism-based; conditions: TG1, 24 h
# [6] = test system: Pseudomonas aeruginosa; assay: Antibiofilm activity against Pseudomonas aeruginosa PA14 after 24 hrs by crystal violet staining based assay; assay type: functional, organism-based; conditions: PA14, 24 h
# [7] = test system: Salmonella typhimurium; assay: Antibiofilm activity against Salmonella typhimurium ATCC 14028 after 24 hrs by crystal violet staining based assay; assay type: functional, organism-based, Salmonella enterica subsp. enterica serovar Typhimurium; conditions: Salmonella enterica, ATCC 14028, 24 h
IC50 [1] [µM],IC50 [2] [µM],IC50 [6] [µM],IC50 [7] [µM],Structure (SMILES),IC50 [3] [µM],IC50 [4] [µM],IC50 [5] [µM]
146,> 800,–,–,Nc1ncc(-c2ccccc2)[nH]1,–,–,–
75.5,> 800,–,–,Nc1ncc(-c2ccc(F)cc2)[nH]1,–,–,–
18,121,–,–,Nc1ncc(-c2ccc(Cl)cc2)[nH]1,–,–,–
8.8,152,–,–,Nc1ncc(-c2ccc(Br)cc2)[nH]1,–,–,–
6.5,40.6,5.6,5.9,Fc1ccc(-c2cnc(NCCCCNc3ncc(-c4ccc(F)cc4)[nH]3)[nH]2)cc1,46,144,4.55
12.3,28.6,5.9,7.7,c1ccc(-c2cnc(NCCCCNc3ncc(-c4ccccc4)[nH]3)[nH]2)cc1,49.4,301,6.81
6.1,10.6,4.9,3.3,Nc1ncc(-c2ccc(Cl)cc2)n1CCCCCCCn1c(-c2ccc(Cl)cc2)cnc1N,200,16.2,> 400
31.5,372,15.2,11.6,Fc1ccc(-c2cnc(NCCCCCCCCNc3ncc(-c4ccc(F)cc4)[nH]3)[nH]2)cc1,> 800,250,47.6
6.3,15,2.5,2.7,Nc1ncc(-c2ccc(Br)cc2)n1CCCn1c(-c2ccc(Br)cc2)cnc1N,11.5,22,9.93
19.3,300,21.3,11.2,c1ccc(-c2cnc(NCCCCCCCCNc3ncc(-c4ccccc4)[nH]3)[nH]2)cc1,> 800,230,48.7
4.5,26.4,3.1,4.1,Nc1ncc(-c2ccc(Cl)cc2)n1CCCn1c(-c2ccc(Cl)cc2)cnc1N,11,26.4,7.56
2,99.4,23.7,14.2,c1ccc(-c2cnc(NCCCCCCNc3ncc(-c4ccccc4)[nH]3)[nH]2)cc1,41.3,113,2.58
4.1,300,2.8,5.7,c1ccc(-c2cnc(NCCCNc3ncc(-c4ccccc4)[nH]3)[nH]2)cc1,75.9,292,2.82
1.8,48,11.6,3.2,Nc1ncc(-c2ccc(F)cc2)n1CCCCCCn1c(-c2ccc(F)cc2)cnc1N,23.8,34.4,> 800
4,8.6,3.2,4.8,Nc1ncc(-c2ccc(Cl)cc2)n1CCCCCCn1c(-c2ccc(Cl)cc2)cnc1N,300,7.4,> 400
10,107,7.5,10.4,Fc1ccc(-c2cnc(NCCCCCCCNc3ncc(-c4ccc(F)cc4)[nH]3)[nH]2)cc1,86.1,121,7.48
7,22.4,12.2,1.5,Nc1ncc(-c2ccc(F)cc2)n1CCCCCCCCn1c(-c2ccc(F)cc2)cnc1N,100,11.7,7.13
6.4,7.2,3.1,3.9,Nc1ncc(-c2ccc(Br)cc2)n1CCCCn1c(-c2ccc(Br)cc2)cnc1N,200,9.17,6.09
11.8,400,4.6,12.6,c1ccc(-c2cnc(NCCCCCCCNc3ncc(-c4ccccc4)[nH]3)[nH]2)cc1,> 800,689,12.9
12.3,180,3.1,5.3,Nc1ncc(-c2ccc(Cl)cc2)n1CCCCn1c(-c2ccc(Cl)cc2)cnc1N,64,130,16.6
5.4,8.9,10.1,10.3,Fc1ccc(-c2cnc(NCCCCCCNc3ncc(-c4ccc(F)cc4)[nH]3)[nH]2)cc1,23.8,28.7,5.52

IC50 [1] [µM],IC50 [2] [µM],IC50 [6] [µM],IC50 [7] [µM],Structure (SMILES),IC50 [3] [µM],IC50 [4] [µM],IC50 [5] [µM]
5.2,180,1.2,4.6,c1ccc(-c2cnc(NCCCCCNc3ncc(-c4ccccc4)[nH]3)[nH]2)cc1,59.6,108,19.9
25.4,24.4,11.1,11.4,Nc1ncc(-c2ccc(F)cc2)n1CCCCn1c(-c2ccc(F)cc2)cnc1N,50,27,77.3
7.5,60.7,12,4.8,Nc1ncc(-c2ccc(F)cc2)n1CCCCCn1c(-c2ccc(F)cc2)cnc1N,85.4,59.7,3.74
27.5,275,23.6,13.5,Nc1ncc(-c2ccccc2)n1CCCCn1c(-c2ccccc2)cnc1N,59.3,255,50.4
2.3,5.5,1.1,1.7,Nc1ncc(-c2ccc(Br)cc2)n1CCCCCCCn1c(-c2ccc(Br)cc2)cnc1N,> 400,8.02,> 400
7.2,23.7,7.1,2.9,Nc1ncc(-c2ccc(F)cc2)n1CCCCCCCn1c(-c2ccc(F)cc2)cnc1N,50,34,> 100
2.9,51.3,4,3,Nc1ncc(-c2ccccc2)n1CCCCCCn1c(-c2ccccc2)cnc1N,100,53.8,> 800
6.3,7.4,6.1,4,Nc1ncc(-c2ccc(Br)cc2)n1CCCCCn1c(-c2ccc(Br)cc2)cnc1N,35.9,8.76,6.7
12,13.5,6.6,5.1,Nc1ncc(-c2ccc(Cl)cc2)n1CCCCCn1c(-c2ccc(Cl)cc2)cnc1N,19.1,24.3,13.4
7,150,1.7,7.6,Fc1ccc(-c2cnc(NCCCCCNc3ncc(-c4ccc(F)cc4)[nH]3)[nH]2)cc1,85.4,105,16.4
2.9,22.2,8.7,16.1,Nc1ncc(-c2ccccc2)n1CCCCCCCCn1c(-c2ccccc2)cnc1N,> 400,15.3,6.13
26.6,0.4,25.2,15.3,Nc1ncc(-c2ccccc2)n1CCCn1c(-c2ccccc2)cnc1N,147,572,62.4
7.5,171,11.6,7.4,Nc1ncc(-c2ccc(F)cc2)n1CCCn1c(-c2ccc(F)cc2)cnc1N,103,124,10.7
1.1,6.1,1.3,2,Nc1ncc(-c2ccc(Cl)cc2)n1CCCCCCCCn1c(-c2ccc(Cl)cc2)cnc1N,47.8,3.9,2.8
35,150,120,23,Clc1ccc(-c2cnc(NCCCCCCCNc3ncc(-c4ccc(Cl)cc4)[nH]3)[nH]2)cc1,> 800,141,29.8
10.5,96.1,33.1,20.2,Nc1ncc(-c2ccccc2)n1CCCCCn1c(-c2ccccc2)cnc1N,89.8,85.7,> 800
0.8,2.8,4.5,7.7,Nc1ncc(-c2ccc(Br)cc2)n1CCCCCCCCn1c(-c2ccc(Br)cc2)cnc1N,> 400,2,2.99
4.8,50,5.7,6.3,Fc1ccc(-c2cnc(NCCCNc3ncc(-c4ccc(F)cc4)[nH]3)[nH]2)cc1,59.2,60.1,16.2
8,11.7,3.7,3.7,Nc1ncc(-c2ccccc2)n1CCCCCCCn1c(-c2ccccc2)cnc1N,> 400,32.7,> 800
8.2,11.2,5.8,8.4,Nc1ncc(-c2ccc(Br)cc2)n1CCCCCCn1c(-c2ccc(Br)cc2)cnc1N,> 400,11.1,> 400
42.7,300,31.6,8.3,Clc1ccc(-c2cnc(NCCCCCCCCNc3ncc(-c4ccc(Cl)cc4)[nH]3)[nH]2)cc1,47.8,121,44
